US20240270744A1 (Hoffmann-La Roche Inc., priority 2021, published 2024)

Legend:
[1] = molecular target: h-GABA-A α2β2γ1 (Homo sapiens (Human), UniProt P47869+Q8N1C3); assay: Two-electrode voltage clamp electrophysiology in Xenopus oocytes expressing GABAA receptors; format: cell-based; details: Table 2; for Efficacy (GABA) %: % modulation of GABA EC20 = 100*(Fold increase-1), compound at 30-fold Ki; for Fold increase h-GABA-A α2β2γ1 oocyte @ 30-fold Ki: GABA EC20, test compound at approx. 30-fold its Ki α2β2γ1, Xenopus oocytes, -80 mV
Method: Xenopus laevis oocytes at maturation stages V-VI were used for the expression of cloned mRNA encoding GABAA receptor subunits. Oocytes ready for RNA micro-injection were bought from Ecocyte, Castrop-Rauxel, Germany and stored in modified Barth's medium (composition in mM: NaCl 88, KCl 1, NaHCO3 2.4, HEPES 10, MgSO4 0.82, CaNO3 0.33, CaCl2 0.33, pH=7.5) at 20° C. until the experiment.
Oocytes were plated in 96-well plates for microinjection using the Roboinject automated instrument (MultiChannelSystems, Reutlingen, Germany). Approximately 50 nL of an aqueous solution containing the RNA transcripts for the subunits of the desired GABAA receptor subtype was injected into each oocyte. […] Oocytes were kept in modified Barth's medium (composition in mM: NaCl 88, KCl 1, NaHCO3 […], HEPES 10, MgSO4 0.82, CaNO3 0.33, CaCl2 0.33, pH=7.5) at 20° C. until the experiment.
Electrophysiological experiments were performed using the Roboocyte instrument (MultiChannelSystems, Reutlingen, Germany) on days 3 to 5 after the micro-injection of mRNA. During the experiment the oocytes were constantly superfused by a solution containing (in mM) NaCl 90, KCl 1, HEPES 5, MgCl2 1, CaCl2 1 (pH 7.4). Oocytes were impaled by two glass microelectrodes (resistance: […]) which were filled with a solution containing KCl 1M+K-acetate 1.5 M and voltage-clamped to −80 mV. The recordings were performed at room temperature using the Roboocyte two-electrode voltage clamp system (Multichannelsystem). After an initial equilibration period of 1.5 min GABA was added for 1.5 min at a concentration evoking approximately 20% of a maximal current response (EC20). After another rest interval of 2.5 min GABA was again added evoking a response of similar amplitude and shape. […] Current traces were recorded at a digitization rate of 10 Hz during and shortly before and after the GABA application.
Each compound and concentration was tested on at least 3 oocytes. Different oocytes were used for different compound concentrations.
For the analysis, the digitized current traces of the first and second GABA response were superimposed and, if necessary, rescaled to equal maximal amplitudes. The ratio between the two responses during the time interval of test compound application was calculated point by point. The extremum of the resulting “ratio trace” was taken as the efficacy (“Fold increase”) of the compound expressed as “% modulation of GABA EC20” (100*(Fold increase−1)).

[2] = molecular target: human GABAA α1β3γ2 receptor (Homo sapiens (Human), UniProt P14867+P18507); assay: Radioligand binding assay, competition for [3H]Flumazenil, γ2-containing GABAA subtypes; details: Table 1; [3H]Flumazenil displacement, HEK293F cells, mean of two determinations; read-out: Ki h-GABAA α1β3γ2
Method: The affinity of compounds at GABAA γ2 subunit-containing receptors was measured by competition for [^3H]Flumazenil (81.1 Ci/mmol; Roche) binding to HEK293F cells expressing human (transiently transfected) receptors of composition α1β3γ2.
Harvested pellets from HEK293F cells expressing the different GABAA γ2 receptor subtypes were resuspended in Mannitol Buffer pH 7.2-7.4 and processed as described above for the cells expressing the GABAA γ1 subunit-containing receptors.
Assays were incubated to equilibrium for 1 hour at 4° C. and harvested onto GF/C uni-filters (Packard) by filtration using a Packard harvester and washing with ice-cold wash buffer (50 mM Tris; pH 7.5). After anhydrousing, filter-retained radioactivity was detected by liquid scintillation counting. Ki values were calculated using Excel-Fit (Microsoft) and are the means of two determinations.

| Structure (SMILES) | Efficacy (GABA) % [1] [%] | Fold increase h-GABA-A α2β2γ1 oocyte @ 30-fold Ki [1] | Ki [2] [µM] |
| --- | --- | --- | --- |
| C[C@@H]1N=C(c2c(F)cccc2F)c2c(cnc(C(F)(F)F)c2Cl)-n2nc(C(=O)NC[C@@H](C)O)nc21 [Example 16, (7S)-11-chloro-9-(2,6-difluorophenyl)-N-[(2R)-2-hydroxypropyl]-7-methyl-12-(trifluoromethyl)-2,3,5,8,13-pentazatricyclo[8.4.0.02,6]tetradeca-1(10),3,5,8,11,13-hexaene-4-carboxamide] | 166 | 2.66 | 9.47 |
| C[C@@H]1N=C(c2c(F)cccc2F)c2c(cnc(C(F)(F)F)c2Cl)-n2nc(C(=O)N3CCC3)nc21 [Example 6, azetidin-1-yl-[(7S)-11-chloro-9-(2,6-difluorophenyl)-7-methyl-12-(trifluoromethyl)-2,3,5,8,13-pentazatricyclo[8.4.0.02,6]tetradeca-1(10),3,5,8,11,13-hexaen-4-yl]methanone] | 91 | 1.91 | 10.2 |
| C[C@@H]1N=C(c2c(F)cccc2F)c2c(cnc(C(F)(F)F)c2Cl)-n2cc(C(=O)NCCO)nc21 [Example 19, (7S)-11-chloro-9-(2,6-difluorophenyl)-N-(2-hydroxyethyl)-7-methyl-12-(trifluoromethyl)-2,5,8,13-tetrazatricyclo[8.4.0.02,6]tetradeca-1(10),3,5,8,11,13-hexaene-4-carboxamide] | 170 | 2.70 | 5.11 |
| C[C@@H]1N=C(c2c(F)cccc2F)c2c(cnc(C(F)(F)F)c2Cl)-n2nc(C(=O)NCC(C)(C)O)nc21 [Example 21, (7S)-11-chloro-9-(2,6-difluorophenyl)-N-(2-hydroxy-2-methyl-propyl)-7-methyl-12-(trifluoromethyl)-2,3,5,8,13-pentazatricyclo[8.4.0.02,6]tetradeca-1(10),3,5,8,11,13-hexaene-4-carboxamide] | 175 | 2.75 | 11.3 |
| C[C@@H]1N=C(c2c(F)cccc2F)c2c(cnc(C(F)(F)F)c2Cl)-n2nc(C(=O)N3CC(O)C3)nc21 [Example 8, [(7S)-11-chloro-9-(2,6-difluorophenyl)-7-methyl-12-(trifluoromethyl)-2,3,5,8,13-pentazatricyclo[8.4.0.02,6]tetradeca-1(10),3,5,8,11,13-hexaen-4-yl]-(3-hydroxyazetidin-1-yl)methanone] | 114 | 2.14 | 3.72 |
